Values quoted from earlier work in patent publication US10047050B2, “3,4-di-substituted pyridine compound, methods of using and compositions comprising the same” (ARDEA BIOSCIENCES, INC., priority 2011, dated 2018).

Conditions: cited from earlier work
[1] = individuals treated with probenecid

SMILES | incidence of side effects (of all individuals treated with the drug) | individuals who develop intolerance [1] | individuals who fail to achieve reduction of serum uric acid levels <6 mg/dL [1]
Oc1ncnc2[nH]ncc12 [Allopurinol, allopurinol] | 20% |  | 
CCCN(CCC)S(=O)(=O)c1ccc(C(=O)O)cc1 [probenecid] |  | one-third | 25-50%
